Like-named read-outs stand apart in the source and are kept apart here.
Key:
Type in all cases: biochemical
DYRK1A = biological target: T1, DYRK1A (Homo sapiens, UniProt Q13627); assay: Inhibition test on activity of DYRK family, mobility shift assay (MSA): DYRK1A
T1 construct: purchased Carna Biosciences, Inc. 04-130
How it was run: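 Mobility shift assay with recombinant DYRK1A (0.2 ng/μL enzyme solution), FITC-DYRKtide substrate (4 μM in substrate mix), 100 μM ATP in substrate mix, HEPES pH 7.5 buffer with MgCl2; 1 h at room temperature. Phosphorylated vs unphosphorylated peptide peaks quantified; IC50 from regression of inhibition rate against log concentration.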

DYRK2 = biological target: T2, DYRK2 (Homo sapiens, UniProt Q92630); assay: Inhibition test on activity of DYRK family, mobility shift assay (MSA): DYRK2
T2 construct: purchased Carna Biosciences, Inc. 04-132
T2 sequence (Q92630 74-601 limits assumed): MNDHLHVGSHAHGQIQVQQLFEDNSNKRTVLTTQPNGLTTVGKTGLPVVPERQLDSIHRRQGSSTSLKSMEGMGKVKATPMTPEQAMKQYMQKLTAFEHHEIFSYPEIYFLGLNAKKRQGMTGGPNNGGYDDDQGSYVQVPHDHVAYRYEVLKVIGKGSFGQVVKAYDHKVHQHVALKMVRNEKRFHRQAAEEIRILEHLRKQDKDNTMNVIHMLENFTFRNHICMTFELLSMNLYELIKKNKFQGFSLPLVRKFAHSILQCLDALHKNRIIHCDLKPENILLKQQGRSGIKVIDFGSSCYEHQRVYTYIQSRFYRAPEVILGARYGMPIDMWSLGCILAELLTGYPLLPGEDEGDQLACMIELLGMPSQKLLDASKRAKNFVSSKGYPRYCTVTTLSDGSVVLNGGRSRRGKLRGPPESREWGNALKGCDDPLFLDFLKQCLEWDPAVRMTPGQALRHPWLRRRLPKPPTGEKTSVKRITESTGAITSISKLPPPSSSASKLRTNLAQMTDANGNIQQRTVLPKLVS
How it was run: (§1)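 Mobility-shift readout of FITC-DYRKtide phosphorylation in 20 mM HEPES pH 7.5. The substrate mix held 4 µM peptide, 20 mM MgCl2 and ATP at 100 (1A), 200 (1B), 40 (2) or 20 µM (3). Reaction 1 h at room temperature; IC50 from regression of P/(P+S)-based inhibition vs log concentration.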

DYRK3 = biological target: T3, DYRK3 (Homo sapiens, UniProt O43781); assay: Inhibition test on activity of DYRK family, mobility shift assay (MSA): DYRK3
T3 construct: purchased Carna Biosciences, Inc. 04-133
T3 sequence (O43781 1-568 isoform O43781-2): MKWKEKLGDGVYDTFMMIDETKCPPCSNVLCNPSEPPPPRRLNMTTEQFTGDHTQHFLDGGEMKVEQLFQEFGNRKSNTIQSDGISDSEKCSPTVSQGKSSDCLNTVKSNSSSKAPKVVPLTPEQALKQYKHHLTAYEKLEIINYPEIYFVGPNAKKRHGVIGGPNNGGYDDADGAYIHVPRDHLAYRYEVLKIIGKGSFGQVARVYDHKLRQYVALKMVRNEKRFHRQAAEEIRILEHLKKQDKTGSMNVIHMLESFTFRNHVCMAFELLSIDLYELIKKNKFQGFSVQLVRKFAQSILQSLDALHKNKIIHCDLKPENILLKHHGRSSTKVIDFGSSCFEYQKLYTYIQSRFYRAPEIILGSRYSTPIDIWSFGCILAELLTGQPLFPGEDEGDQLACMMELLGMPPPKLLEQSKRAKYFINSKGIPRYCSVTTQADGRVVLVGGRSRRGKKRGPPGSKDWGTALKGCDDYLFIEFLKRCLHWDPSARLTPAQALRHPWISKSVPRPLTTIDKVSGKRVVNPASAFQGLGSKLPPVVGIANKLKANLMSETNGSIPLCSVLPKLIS
How it was run: as §1

[1] = MSA, FITC-labeled DYRKtide peptide, ATP 100 μM, read-out: Inhibitory activity DYRK 1A (IC50 class)
[2] = MSA, FITC-labeled DYRKtide peptide, ATP 40 μM, read-out: Inhibitory activity DYRK 2 (IC50 class)
[3] = MSA, FITC-labeled DYRKtide peptide, ATP 20 μM, read-out: Inhibitory activity DYRK 3 (IC50 class)
[4] = read-out: Inhibitory activity DYRK 1A
[5] = read-out: Inhibitory activity DYRK 2
[6] = read-out: Inhibitory activity DYRK 3

IC50 (DYRK1A; [1]) [nM]	IC50 (DYRK2; [2]) [nM]	IC50 (DYRK3; [3]) [nM]	IC50 (DYRK1A; [4]) [nM]	IC50 (DYRK2; [5]) [nM]	IC50 (DYRK3; [6]) [nM]	SMILES
10 to 100	100 to 1000	10 to 100				O=C1N[C@H]2CCNCC[C@H]2N1c1nc2c3c(ccc2s1)OCC3 [Example 45]
10 to 100	100 to 1000	100 to 1000				O=C1N[C@@H]2[C@@H](CCNC23CC3)N1c1nc2c3c(ccc2s1)OCC3 [Example 46]
100 to 1000	≥ 1000	100 to 1000				O=C1N[C@H]2CCNC3(CC3)[C@H]2N1c1nc2c3c(ccc2s1)OCC3 [Example 47]
10 to 100	100 to 1000	10 to 100				O=C1N[C@@H]2CCNC3(CC3)[C@H]2N1c1nc2c3c(ccc2s1)OCC3 [Example 48]
100 to 1000	≥ 1000	100 to 1000				O=C1N[C@H]2[C@H](F)CNC[C@H]2N1c1nc2c3c(ccc2s1)OCC3 [Example 50]
10 to 100	100 to 1000	100 to 1000				O=C1N[C@H]2CNCC[C@H]2N1c1nc2c3c(ccc2s1)OCCO3 [Example 51]
100 to 1000	≥ 1000	100 to 1000				O=C1N[C@H]2CCN(C3CNC3)C[C@H]2N1c1nc2c3c(ccc2s1)OCC3 [Example 53]
10 to 100	100 to 1000	100 to 1000				O=C1N[C@H]2CNCCC[C@H]2N1c1nc2c3c(ccc2s1)OCO3 [Example 54]
100 to 1000	≥ 1000	100 to 1000				O=C1N[C@H]2CCCNC[C@H]2N1c1nc2c3c(ccc2s1)OCO3 [Example 55]
100 to 1000	≥ 1000	100 to 1000				O=C1N[C@H]2CC3(CC3)NC[C@H]2N1c1nc2c3c(ccc2s1)OCC3 [Example 57]
100 to 1000	≥ 1000	100 to 1000				CN1C[C@@H]2NC(=O)N(c3nc4c5c(ccc4s3)OCC5)[C@@H]2[C@@H](F)C1 [Example 74]
10 to 100	≥ 1000	≥ 1000				CN1C[C@@H](F)[C@@H]2NC(=O)N(c3nc4c5c(ccc4s3)OCC5)[C@@H]2C1 [Example 75]
10 to 100	≥ 1000	≥ 1000				CC(C)(C)OC(=O)N1CC(N2CC[C@@H]3NC(=O)N(c4nc5c6c(ccc5s4)OCC6)[C@@H]3C2)C1 [Example 82]
100 to 1000	≥ 1000	100 to 1000				CN1CC(N2CC[C@@H]3NC(=O)N(c4nc5c6c(ccc5s4)OCC6)[C@@H]3C2)C1 [Example 83]
10 to 100	100 to 1000	100 to 1000				CN1CCC[C@@H]2[C@H](C1)NC(=O)N2c1nc2c3c(ccc2s1)OCO3 [Example 84]
100 to 1000	≥ 1000	≥ 1000				CN1C[C@@H]2NC(=O)N(c3nc4c5c(ccc4s3)OCC5)[C@@H]2CC12CC2 [Example 89]
			100 to 1000	≥ 1000	≥ 1000	C[C@H]1C[C@H]2NC(=O)N(c3nc4c5c(ccc4s3)OCC5)C2CN1C (stereo partly drawn) [Example 92]
			10 to 100	≥ 1000	100 to 1000	C[C@H]1C[C@@H]2[C@H](CN1C)NC(=O)N2c1nc2c3c(ccc2s1)OCC3 [Example 93, (3aS,6S,7aR)-1-(7,8-dihydrofuro[3,2-e][1,3]benzothiazol-2-yl)-5,6-dimethyloctahydro-2H-imidazo[4,5-c]pyridin-2-one]
			100 to 1000	≥ 1000	≥ 1000	C[C@H]1[C@@H]2[C@H](CCN1C)NC(=O)N2c1nc2c3c(ccc2s1)OCC3 [Example 94]
			100 to 1000	100 to 1000	100 to 1000	C[C@H]1[C@H]2[C@@H](CCN1C)NC(=O)N2c1nc2c3c(ccc2s1)OCC3 [Example 95]
			100 to 1000	≥ 1000	≥ 1000	C[C@@H]1C[C@@H]2NC(=O)N(c3nc4c5c(ccc4s3)OCC5)[C@@H]2CN1C [Example 96]
			100 to 1000	≥ 1000	≥ 1000	C[C@@H]1[C@@H]2NC(=O)N(c3nc4c5c(ccc4s3)OCC5)[C@@H]2CCN1C [Example 97]
			10 to 100	≥ 1000	≥ 1000	O=C1N[C@H]2CN(C3CC3)C[C@H]2N1c1nc2c3c(ccc2s1)OCC3 [Example 101]

Second part, the compound before the results:

SMILES	IC50 (DYRK1A; [1]) [nM]	IC50 (DYRK2; [2]) [nM]	IC50 (DYRK3; [3]) [nM]	IC50 (DYRK1A; [4]) [nM]	IC50 (DYRK2; [5]) [nM]	IC50 (DYRK3; [6]) [nM]
O=C1N[C@H]2COCC[C@H]2N1c1nc2c3c(ccc2s1)OCO3 [Example 21, (3aR,7aR)-1-(2H-[1,3]dioxolo[4,5-e][1,3]benzothiazol-7-yl)hexahydropyrano[3,4-d]imidazol-2(3H)-one]	< 10	100 to 1000	100 to 1000			
C[C@H]1NC(=O)N(c2nc3c4c(ccc3s2)OCC4)[C@@H]1CN(C)C [Example 22, (4R,5R)-1-(7,8-dihydrofuro[3,2-e][1,3]benzothiazol-2-yl)-5-[(dimethylamino)methyl]-4-methylimidazolidin-2-one]	100 to 1000	≥ 1000	≥ 1000			
C[C@@H]1NC(=O)N(c2nc3c4c(ccc3s2)OCC4)[C@@H]1CN(C)C [Example 25]	10 to 100	≥ 1000	≥ 1000			
O=C1NC2CCNCC2N1c1nc2c3c(ccc2s1)OCCO3 (stereo not drawn) [Example 29]	10 to 100	≥ 1000	≥ 1000			
O=C1NC2CCNCC2N1c1nc2c3c(ccc2s1)OCO3 (stereo not drawn) [Example 30]	10 to 100	≥ 1000	≥ 1000			
O=C1NC2CCN(C3CC3)CC2N1c1nc2c3c(ccc2s1)OCO3 (stereo not drawn) [Example 32]	< 10	≥ 1000	≥ 1000			
COC[C@@H]1[C@H](C)NC(=O)N1c1nc2c3c(ccc2s1)OCC3 [Example 44, (4S,5S)-1-(7,8-dihydrofuro[3,2-e][1,3]benzothiazol-2-yl)-5-(methoxymethyl)-4-methylimidazolidin-2-one]	< 10	100 to 1000	100 to 1000			
O=C1N[C@H]2CNC[C@H](F)[C@H]2N1c1nc2c3c(ccc2s1)OCC3 [Example 49]	10 to 100	100 to 1000	100 to 1000			
O=C1N[C@H]2CNC3(CC3)C[C@H]2N1c1nc2c3c(ccc2s1)OCC3 [Example 56]	100 to 1000	≥ 1000	100 to 1000			
O=C1N[C@H]2COC[C@H]2N1c1nc2c3c(ccc2s1)OCC3 [Example 65, (3aR,6aS)-1-(7,8-dihydrofuro[3,2-e][1,3]benzothiazol-2-yl)tetrahydro-1H-furo[3,4-d]imidazol-2(3H)-one]	< 10	10 to 100	10 to 100			
O=C1N[C@@H]2COC[C@@H]2N1c1nc2c3c(ccc2s1)OCC3 [Example 66]	100 to 1000	≥ 1000	≥ 1000			
CN1CC[C@@H]2NC(=O)N(c3nc4c5c(ccc4s3)OCC5)[C@@H]2CC1 [Example 67]	100 to 1000	≥ 1000	100 to 1000			
CN1CC[C@@H]2[C@@H](NC(=O)N2c2nc3c4c(ccc3s2)OCC4)C12CC2 [Example 68]	100 to 1000	≥ 1000	100 to 1000			
O=C1N[C@H]2CN(C3CC3)CC[C@H]2N1c1nc2c3c(ccc2s1)OCO3 [Example 87]	100 to 1000	100 to 1000	≥ 1000			
O=C1N[C@H]2CN(C3CC3)CC[C@H]2N1c1nc2c3c(ccc2s1)OCCO3 [Example 88]	100 to 1000	≥ 1000	≥ 1000			
CN1C[C@@H]2[C@H](CC13CC3)NC(=O)N2c1nc2c3c(ccc2s1)OCC3 [Example 90]	10 to 100	100 to 1000	100 to 1000			
C[C@H]1[C@H]2NC(=O)N(c3nc4c5c(ccc4s3)OCC5)C2CCN1C (stereo partly drawn) [Example 91]	10 to 100	100 to 1000	10 to 100			
